# Assay results reported in patent EP1198478B1, “SOMATOSTATIN ANALOGS AND THEIR USE FOR THE TREATMENT OF CANCER” (Dabur Research Foundation, priority 2000, dated 2002).
# Values joined by “and” are separate entries in the source; they are usually repeats but may differ in a detail not shown here. Equal entries are not always repeated.
# Assays:
# HeP2 (Laryngeal) = assay: MTT cytotoxicity assay, HeP2 cells; assay type: cell-based; details: 48 hours
# From the text: (§1) The cytotoxic effect of peptides SEQ ID NO: 2, SEQ ID NO: 3, SEQ ID NO: 6, and SEQ ID NO: 9, was studied by MTT assay which is based on the principle of uptake of MTT [3-[4,5-dimethylthiazol-2-yl]-2,5-diphenyl tetrazolium bromide], a tetrazolium salt by the metabolically active cells where it is metabolized by active mitochondria into a blue colored formazan product which can be read spectrophotometrically. Briefly, tumor cells PTC (primary human colon cancer cell line), KB (Oral squamous), U87MG (Glioblastoma), HBL100 (Breast), HeP2 (Laryngeal), ECV304 (Endothelial), PA-1 (Ovary) and L132 (Lung) were incubated with the peptide analogs for 48 hours at 37°C in a 96-well culture plate, followed by the addition of 100 µg MTT and further incubation of 1 hour. The formazan crystals formed inside the cells were dissolved with a detergent comprising 10% Sodium dodecyl sulfate and 0.01 N HCl and optical density read on a multiscan ELISA reader. The optical density was directly proportional to the number of proliferating and metabolically active cells.
# PA-1 (Ovary) = assay: MTT cytotoxicity assay, PA-1 cells; assay type: cell-based; details: 48 hours
# From the text: as §1
# [1] = test system: PTC (primary human colon cancer cell line); assay: MTT cytotoxicity assay, PTC cells; assay type: cell-based; details: 48 hours
# From the text: as §1
# L132 (Lung) = assay: MTT cytotoxicity assay, L132 cells; assay type: cell-based; details: 48 hours
# From the text: as §1
# KB (Oral squamous) = assay: MTT cytotoxicity assay, KB cells; assay type: cell-based; details: 48 hours
# From the text: as §1
# U87MG (Glioblastoma) = assay: MTT cytotoxicity assay, U87MG cells; assay type: cell-based; details: 48 hours
# From the text: as §1
# ECV304 (Endothelial) = assay: MTT cytotoxicity assay, ECV304 cells; assay type: cell-based; details: 48 hours
# From the text: as §1
# HBL100 (Breast) = assay: MTT cytotoxicity assay, HBL100 cells; assay type: cell-based; details: 48 hours
# From the text: as §1
# [2] = test system: human colon adenocarcinoma (PTC) xenografts; assay: In vivo antitumor activity on primary tumor (colon) xenografted mice; design: species or system Balb/c athymic mice; details: for tumor volumes, Avg: average of three animals; for tumor volumes of individual tumor bearing animals: individual animals (IV, V, VI for SEQ ID NO: 2; I, II, III for SEQ ID NO: 3)
# Method: The antitumor activity of SEQ ID NO:2 and SEQ ID NO:3 was studied in human colon adenocarcinoma (PTC) xenografts in nude mice. PTC tumor xenografts were grown in Balb/c athymic mice by subcutaneous inoculation of a single cell suspension of PTC cells (15 X10^6 cells/ 100µl). The tumor bearing animals were divided into 3 groups of three animals each including one group comprising untreated control animals. Treatment with novel somatostatin analogs was initiated when the average tumor volumes, as measured using a vernier caliper, were between 400-800 mm^3. Solutions of SEQ ID NO:2 and SEQ ID NO:3 were prepared at a concentration of 85 µg/ml and intravenously administered to the assigned group of tumor bearing animals at a dose of 8.5 µg/100 µl twice a day so that the total dose of […] was administered to each animal. The treatment was continued for a period of 10 days.
# The antitumor activity of the compounds was monitored by measuring tumor volumes every fourth day using the formula W*W*L*.04 (W = smaller diameter, L = larger diameter). The percentage inhibition of tumor growth was calculated using the formula (1-tumor volume-treated/tumor volume control)* 100.
# [3] = day 9, intravenously 8.5 µg/100 µl twice a day, 10 days
# [4] = day 13, intravenously 8.5 µg/100 µl twice a day, 10 days
# [5] = day 18, intravenously 8.5 µg/100 µl twice a day, 10 days
# [6] = day 21, intravenously 8.5 µg/100 µl twice a day, 10 days
substance,measurement,setting,value
D-Phe-Cys-Tyr-D-Trp-Orn-Deg-Pen-Thr-NH2 [SEQ ID NO: 2],Percentage cytotoxicity,HeP2 (Laryngeal); 1nM,14.9 ± 3.2%
same,Percentage cytotoxicity,HeP2 (Laryngeal); 10 nM,29.7 ± 4.4%
same,Percentage cytotoxicity,HeP2 (Laryngeal); 1µM,10.0 ± 2.4%
same,Percentage cytotoxicity,HeP2 (Laryngeal); 100n M,13.0 ± 3.5%
same,Percentage cytotoxicity,PA-1 (Ovary); 1nM,29.5 ± 24%
same,Percentage cytotoxicity,PA-1 (Ovary); 10 nM,27.9 ± 3.4%
same,Percentage cytotoxicity,PA-1 (Ovary); 1µM,12.8 ± 3.3%
same,Percentage cytotoxicity,PA-1 (Ovary); 100n M,22.9 ± 2.3%
same,Percentage cytotoxicity,[1]; 1nM,40 ± 0.5%
same,Percentage cytotoxicity,[1]; 10 nM,14 ± 2.9%
same,Percentage cytotoxicity,[1]; 1µM,9.0 ± 3.2%
same,Percentage cytotoxicity,[1]; 100n M,20 ± 1.5%
same,Percentage cytotoxicity,L132 (Lung); 1nM,12.7 ± 2.9%
same,Percentage cytotoxicity,L132 (Lung); 10 nM,23.4 ± 4.2%
same,Percentage cytotoxicity,L132 (Lung); 1µM,17.7 ± 5.5%
same,Percentage cytotoxicity,L132 (Lung); 100n M,22.8 ± 4.6%
same,Percentage cytotoxicity,KB (Oral squamous); 1nM,28.0 ± 3.2%
same,Percentage cytotoxicity,KB (Oral squamous); 10 nM,34.9 ± 4.6%
same,Percentage cytotoxicity,KB (Oral squamous); 1µM,12.0 ± 4.3%
same,Percentage cytotoxicity,KB (Oral squamous); 100n M,19.0 ± 5.2%
same,Percentage cytotoxicity,U87MG (Glioblastoma); 1nM,22.8 ± 3.5%
same,Percentage cytotoxicity,U87MG (Glioblastoma); 10 nM,41.9 ± 2.4%
same,Percentage cytotoxicity,U87MG (Glioblastoma); 1µM,33.9 ± 1.2%
same,Percentage cytotoxicity,U87MG (Glioblastoma); 100n M,39.5 ± 1.4%
same,Percentage cytotoxicity,ECV304 (Endothelial); 1nM,22.8 ± 3.9%
same,Percentage cytotoxicity,ECV304 (Endothelial); 10 nM,19.8 ± 3.3%
same,Percentage cytotoxicity,ECV304 (Endothelial); 1µM,6.0 ± 2.9%
same,Percentage cytotoxicity,ECV304 (Endothelial); 100n M,14.9 ± 2.9%
same,Percentage cytotoxicity,HBL100 (Breast); 1nM,19.4 ± 4.5%
same,Percentage cytotoxicity,HBL100 (Breast); 10 nM,22.8 ± 1.8%
same,Percentage cytotoxicity,HBL100 (Breast); 1µM,10.6 ± 1.4%
same,Percentage cytotoxicity,HBL100 (Breast); 100n M,15.7 ± 3.5%
same,"tumor volumes, Avg","[2]; day 0, before treatment",0 mm^3
same,tumor volumes of individual tumor bearing animals,"[2]; day 0, before treatment",0 mm^3
same,"tumor volumes, Avg",[2]; [3],654 mm^3
same,tumor volumes of individual tumor bearing animals,[2]; [3],480 mm^3 and 678 mm^3 and 806 mm^3
same,"tumor volumes, Avg",[2]; [4],1927 mm^3
same,tumor volumes of individual tumor bearing animals,[2]; [4],1254 mm^3 and 2196 mm^3 and 2333 mm^3
same,"tumor volumes, Avg",[2]; [5],3886 mm^3
same,tumor volumes of individual tumor bearing animals,[2]; [5],1965 mm^3 and 5240 mm^3 and 4453 mm^3
same,percentage inhibition of tumor growth,"[2]; day 21, as compared to controls, (1-tumor volume-treated/tumor volume control)* 100, intravenously 8.5 µg/100 µl twice a day, 10 days",57.1%
same,"tumor volumes, Avg",[2]; [6],3860 mm^3
same,tumor volumes of individual tumor bearing animals,[2]; [6],491 mm^3 and 4839 mm^3 and 6250 mm^3
